Test results published in BindingDB's records for doi:10.1016/0024-3205(89)90523-7 (Nida Addiction Research Center, 1989).
Where “and” joins values, the source holds several entries; their conditions need not be identical. Identical values can stand only once.

Assays:
[1] = target: 5-hydroxytryptamine receptor 2A (Rattus norvegicus, UniProt P14842)
[2] = target: Sodium-dependent dopamine transporter (Rattus norvegicus, UniProt P23977)
D(2) dopamine receptor = D(2) dopamine receptor (Rattus norvegicus, UniProt P61169)
[3] = target: T1, Alpha-1A adrenergic receptor (Rattus norvegicus, UniProt P43140)
T1 sequence (P43140 whole entry): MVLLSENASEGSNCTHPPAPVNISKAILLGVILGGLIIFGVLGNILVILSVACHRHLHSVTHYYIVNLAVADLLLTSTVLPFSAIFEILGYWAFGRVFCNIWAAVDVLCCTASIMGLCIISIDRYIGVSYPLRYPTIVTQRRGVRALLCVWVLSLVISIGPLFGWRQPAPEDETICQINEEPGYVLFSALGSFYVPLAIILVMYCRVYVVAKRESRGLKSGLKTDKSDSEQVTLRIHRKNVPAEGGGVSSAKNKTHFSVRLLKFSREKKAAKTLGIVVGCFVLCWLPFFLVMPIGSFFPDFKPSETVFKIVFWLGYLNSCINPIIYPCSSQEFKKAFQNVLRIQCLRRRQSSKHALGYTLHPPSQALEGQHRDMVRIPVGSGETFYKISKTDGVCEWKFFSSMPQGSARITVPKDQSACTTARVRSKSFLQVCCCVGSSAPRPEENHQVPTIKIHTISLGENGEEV

[4] = target: T2, Muscarinic acetylcholine receptor M2 (Rattus norvegicus, UniProt P10980)
T2 sequence (P10980 whole entry): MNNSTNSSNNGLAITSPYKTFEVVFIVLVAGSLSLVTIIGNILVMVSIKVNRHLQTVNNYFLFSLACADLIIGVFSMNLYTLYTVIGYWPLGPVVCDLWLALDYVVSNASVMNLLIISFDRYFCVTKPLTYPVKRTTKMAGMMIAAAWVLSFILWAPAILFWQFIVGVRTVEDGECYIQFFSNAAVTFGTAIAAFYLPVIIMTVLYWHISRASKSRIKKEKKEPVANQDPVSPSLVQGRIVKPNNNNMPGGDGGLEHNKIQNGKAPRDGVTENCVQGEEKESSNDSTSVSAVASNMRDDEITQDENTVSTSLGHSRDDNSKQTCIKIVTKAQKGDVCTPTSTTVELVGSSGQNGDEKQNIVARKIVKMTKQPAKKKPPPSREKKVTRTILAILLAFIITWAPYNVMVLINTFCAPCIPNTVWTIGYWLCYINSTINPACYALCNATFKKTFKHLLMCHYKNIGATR

D(1A) dopamine receptor = D(1A) dopamine receptor (Rattus norvegicus, UniProt P18901)
[5] = target: Norepinephrine transporter (Rattus norvegicus, UniProt Q9JIA2)

D(2) dopamine receptor, sequence (P61169 whole entry): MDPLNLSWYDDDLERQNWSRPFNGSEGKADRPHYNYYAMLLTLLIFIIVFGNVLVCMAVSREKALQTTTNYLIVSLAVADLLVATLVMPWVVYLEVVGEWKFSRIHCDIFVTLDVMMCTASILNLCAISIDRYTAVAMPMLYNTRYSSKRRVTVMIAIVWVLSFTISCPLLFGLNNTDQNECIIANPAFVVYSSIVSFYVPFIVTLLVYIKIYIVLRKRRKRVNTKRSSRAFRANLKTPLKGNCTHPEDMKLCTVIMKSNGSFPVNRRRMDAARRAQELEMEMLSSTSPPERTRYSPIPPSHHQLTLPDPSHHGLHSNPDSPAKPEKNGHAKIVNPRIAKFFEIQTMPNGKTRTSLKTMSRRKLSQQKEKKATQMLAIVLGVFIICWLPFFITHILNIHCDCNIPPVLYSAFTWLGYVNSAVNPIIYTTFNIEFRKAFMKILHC
5-hydroxytryptamine receptor 2A, sequence (P14842 whole entry): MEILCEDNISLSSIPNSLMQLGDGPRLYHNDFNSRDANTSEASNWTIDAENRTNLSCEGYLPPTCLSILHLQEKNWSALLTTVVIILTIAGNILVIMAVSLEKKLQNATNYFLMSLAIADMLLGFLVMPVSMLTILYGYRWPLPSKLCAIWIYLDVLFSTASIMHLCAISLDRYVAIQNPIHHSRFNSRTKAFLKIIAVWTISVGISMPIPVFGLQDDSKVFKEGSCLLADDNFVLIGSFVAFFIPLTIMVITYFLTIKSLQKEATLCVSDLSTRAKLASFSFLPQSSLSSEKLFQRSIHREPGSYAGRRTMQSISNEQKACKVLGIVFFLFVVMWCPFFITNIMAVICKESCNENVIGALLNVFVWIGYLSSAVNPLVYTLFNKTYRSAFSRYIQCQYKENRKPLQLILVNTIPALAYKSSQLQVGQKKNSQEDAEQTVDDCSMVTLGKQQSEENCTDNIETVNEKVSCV
Sodium-dependent dopamine transporter, sequence (P23977 whole entry): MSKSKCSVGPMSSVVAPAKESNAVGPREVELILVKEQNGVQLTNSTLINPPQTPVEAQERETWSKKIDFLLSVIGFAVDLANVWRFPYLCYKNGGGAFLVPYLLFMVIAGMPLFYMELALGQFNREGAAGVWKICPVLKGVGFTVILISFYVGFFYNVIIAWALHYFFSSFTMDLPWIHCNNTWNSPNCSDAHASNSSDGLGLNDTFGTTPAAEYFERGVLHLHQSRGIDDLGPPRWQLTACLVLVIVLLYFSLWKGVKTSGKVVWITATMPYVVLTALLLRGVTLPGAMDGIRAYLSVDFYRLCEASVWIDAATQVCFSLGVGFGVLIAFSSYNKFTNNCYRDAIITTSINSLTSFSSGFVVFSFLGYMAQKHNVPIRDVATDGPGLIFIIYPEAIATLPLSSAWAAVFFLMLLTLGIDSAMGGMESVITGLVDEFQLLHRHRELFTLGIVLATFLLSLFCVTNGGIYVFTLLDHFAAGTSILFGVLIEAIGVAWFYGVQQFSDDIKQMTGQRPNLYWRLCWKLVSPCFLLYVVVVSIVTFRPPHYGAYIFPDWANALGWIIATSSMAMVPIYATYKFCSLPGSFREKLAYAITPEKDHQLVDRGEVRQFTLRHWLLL
D(1A) dopamine receptor, sequence (P18901 whole entry): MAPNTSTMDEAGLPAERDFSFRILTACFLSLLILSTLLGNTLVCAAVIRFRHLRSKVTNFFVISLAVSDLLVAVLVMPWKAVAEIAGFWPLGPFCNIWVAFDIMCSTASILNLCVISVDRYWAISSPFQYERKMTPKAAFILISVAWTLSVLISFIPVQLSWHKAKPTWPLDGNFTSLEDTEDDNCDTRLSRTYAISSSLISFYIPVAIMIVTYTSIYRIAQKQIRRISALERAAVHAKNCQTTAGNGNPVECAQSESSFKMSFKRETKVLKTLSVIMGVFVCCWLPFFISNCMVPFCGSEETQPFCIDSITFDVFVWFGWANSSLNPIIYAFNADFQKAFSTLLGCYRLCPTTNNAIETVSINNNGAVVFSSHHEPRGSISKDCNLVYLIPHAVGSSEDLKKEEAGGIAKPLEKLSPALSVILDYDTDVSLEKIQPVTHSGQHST

Structure (SMILES): CNc1cc(OC)c(C(=O)NCCN(C)Cc2ccc(I)cc2)cc1Cl [CAS_130377]
- Ki [1]: 1790 nM
- Ki [2]: 209 nM
- Ki (D(2) dopamine receptor): 0.13 nM and 0.215 nM
- Ki [3]: 62 nM
- Ki [4]: 110 nM
- Ki (D(1A) dopamine receptor): 1880 nM
- Ki [5]: 2720 nM
